Results as given in the NIST ThermoML archive (doi:10.1021/je020145g).
Numbers after ± are expanded uncertainties.

How the values were obtained:
[1] = Molar enthalpy of transition or fusion; conditions: DSC
[2] = DTA

Row | Compound | Molar enthalpy of transition or fusion ([1]; Crystal) [kcal/mol] | Normal melting temperature ([2]; Crystal) [°C] | Molar enthalpy of transition or fusion ([1]; Crystal 1) [kcal/mol] | Normal melting temperature ([2]; Crystal 1) [°C] | Glass transition temperature ([2]; Glass) [°C]
1 | CCn1cc[n+](C)c1.F[P-](F)(F)(F)(F)F [1-ethyl-3-methylimidazolium hexafluorophosphate] | 4.27 ± 0.134 | 59.7 ± 1 |  |  | 
2 | CCCCn1cc[n+](C)c1.F[P-](F)(F)(F)(F)F [1-butyl-3-methylimidazolium hexafluorophosphate] |  |  | 2.2 ± 0.0789 | 3.28 ± 1 | -76.59 ± 0.5
